Data: article PMC9415015, “CK2 Inhibition and Antitumor Activity of 4,7-Dihydro-6-nitroazolo[1,5-a]pyrimidines” (Molecules, 2022)
Like-named read-outs stand apart in the source and are kept apart here.

What was measured:
human recombinant CK2α1 = target: T1, human recombinant CK2α1 (Homo sapiens, UniProt P68400); test: CK2 ADP-Glo kinase assay; assay type: biochemical; details: for inhibition at 50 µM: read-out: CK2 Inhibition at 50 μM, m ± SD (%); for Effect on CK2 activity in initial screening (in words): initial screening at 50 μM
T1 construct: purchased Promega V4482
Experimental: Kinase activity was determined using the enzyme system CK2α1 (Promega V4482, Madison, WI, USA) and the ADP-Glo^TM kit (Promega V9101, Madison, WI, USA) in white 96-well plates (Nunc U96 Microwell 267350, Denmark). The reaction was carried out using 50 ng/well of N-GST labeled human recombinant CK2α1, 0.1 µg/µL bovine casein as a substrate, 10 μM ATP in 40 mM Tris buffer solution (pH 7.50) containing 20 mM MgCl2, 0.1 mg/mL of BSA, and 50 μM of DTT. Test compounds were added to 1.25% DMSO (final concentration 0.25%) and preincubated with kinase for 10 min. The reaction was carried out for 60 min at 25 °C in a thermostatically controlled PST-60HL shaker (Biosan. […], Latvia). ATP-dependent luminescence was measured at an integration time of 1000 ms using the Infinite M200 PRO microplate reader (Tecan. Austria). The ATP-competitive inhibitor Staurosporin (CAS 62996–74-1, Alfa Aesar J62837, 99+%) was used as a positive control. The experiments were performed in two parallels.

A-172 cells = test: MTT test, glioblastoma cells; assay type: cell-based, human; details: for Cytotoxicity index IC50 ± SE, A-172: MTT, 72 h incubation; for Selectivity ratio SR (A-172): normal/cancer cell (Hek-293 vs A-172)
Experimental: (§1) The studies were carried out on cultured cells of human glioblastoma (A-172, ATCC CRL 1620), human osteosarcoma (Hos, ATCC CRL 1543), human embryonic rhabdomyosarcoma (Rd, ATCC CRL 136), and human embryonic kidney 293 cells (Hek-293, ATCC CRL 1573) obtained from the Shared research facility “Vertebrate cell culture collection” (Institute of Cytology RAS, Saint-Petersburg, Russia). The cells were cultured using DMEM / F-12 medium containing 10% fetal bovine serum at 37°C, 5% CO2, and 98% humidity. Subculturing was performed using 0.25% trypsin solution when the culture reached ≥90% confluency.
(§2) The compounds were dissolved in DMSO. The solutions were diluted with DMEM/F-12 culture medium with 10% fetal bovine serum to the studied concentrations: 8, 16, 32, 64, 128, 256, 512, and 1024 µM. […] Cisplatin (cPt) was used as a positive control.
(§3) Cells were seeded in 96-well plates at a concentration of 4 × 10^3 cells per well. After 24 h, test compounds were added to the wells in a given concentration range. Then the cells were incubated for 72 h, after which a solution of MTT (3-(4,5-dimethyl-2-thiazolyl)-2,5-diphenyl-2H-tetrazolium bromide) was added to the cultures at 20 µL (5 mg/mL) to the well. After 2.5 h, the medium was removed from the wells and 200 µL of a mixture of DMSO/i-PrOH 1/1 was added. Optical density was measured on a plate spectrophotometer at a wavelength of 570 nm.
(§4) Statistical data processing was carried out in the RStudio program (Version 1.4.1106 © […] RStudio, PBC, Boston, MA, USA) using the R package (version 4.1.2). The cytotoxicity index (IC50) was calculated by plotting dose–response curves using the “drc” package.

Rd cells = test: MTT test, embryonic rhabdomyosarcoma cells; assay type: cell-based, human; details: for Cytotoxicity index IC50 ± SE, Rd: MTT, 72 h incubation; for Selectivity ratio SR (RD): normal/cancer cell (Hek-293 vs Rd)
Experimental: as §1, §2, §3, §4

Hos cells = test: MTT test, osteosarcoma cells; assay type: cell-based, human; details: for Cytotoxicity index IC50 ± SE, Hos: MTT, 72 h incubation; for Selectivity ratio SR (HOS): normal/cancer cell (Hek-293 vs Hos)
Experimental: as §1, §2, §3, §4

Hek-293 cells = test: MTT test, human embryonic kidney cells; assay type: cell-based; details: 72 h incubation
Experimental: as §1, §2, §3, §4

[1] = 50 μM compound, 10 μM ATP, n.a. = not active
[2] = dose-response study of CK2 inhibition
[3] = dose-response study, 10 μM ATP, read-out: CK2 IC50

T1 sequence (P68400 whole entry): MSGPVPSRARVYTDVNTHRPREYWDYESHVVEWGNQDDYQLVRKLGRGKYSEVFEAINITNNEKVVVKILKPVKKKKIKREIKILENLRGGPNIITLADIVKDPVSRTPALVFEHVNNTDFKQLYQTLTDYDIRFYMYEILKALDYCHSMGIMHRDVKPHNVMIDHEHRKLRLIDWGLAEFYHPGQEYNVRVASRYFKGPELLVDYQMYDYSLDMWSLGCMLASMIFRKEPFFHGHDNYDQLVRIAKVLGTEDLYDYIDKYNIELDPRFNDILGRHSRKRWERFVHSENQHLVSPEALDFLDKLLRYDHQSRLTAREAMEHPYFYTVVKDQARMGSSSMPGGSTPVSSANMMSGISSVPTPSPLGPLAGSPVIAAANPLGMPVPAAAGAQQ

Molecule | inhibition at 50 µM (human recombinant CK2α1; [1]) [%] | CK2 inhibitory potency in dose-response study (in words) (human recombinant CK2α1; dose-response study) | Hill Coefficient (human recombinant CK2α1; [2]) | IC50 (human recombinant CK2α1; [3]) [µM] | Effect on CK2 activity in initial screening (in words) (human recombinant CK2α1) | Cytotoxicity index IC50 ± SE, A-172 (A-172 cells) [µM] | Cytotoxicity index IC50 ± SE, Rd (Rd cells) [µM] | Cytotoxicity index IC50 ± SE, Hos (Hos cells) [µM] | Cytotoxicity index IC50 ± SE, Hek-293 (Hek-293 cells) [µM] | Selectivity ratio SR (A-172) (A-172 cells) | Selectivity ratio SR (RD) (Rd cells) | Selectivity ratio SR (HOS) (Hos cells) | Hill Coefficient (human recombinant CK2α1) | inhibition at 50 µM (human recombinant CK2α1) [%] | IC50 (human recombinant CK2α1) [µM]
CSc1nn2c(c1C#N)NC=C([N+](=O)[O-])C2c1ccccc1 (stereo not shown) [Compound 5l, 3-Cyano-2-methylthio-6-nitro-7-phenyl-4,7-dihydropyrazolo[1,5-a]pyrimidine] | 48.4 ± 4.48 | micromolar CK2 inhibitors | −2.947 | 57.2 | Moderate inhibition | 77.79 ± 4.02 | 124.66 ± 6.80 | 92.91 ± 3.91 | 162.30 ± 9.95 | – | – | – | – | – | –
5-Methyl-2-methylthio-6-nitro-7-(4ʹ-nitrophenyl)-4,7-dihydro-1,2,4-triazolo[1,5-a]pyrimidine [Compound 6c] | – | – | – | – | paradoxically enhance CK2 activity | 41.27 ± 4.10 | 71.15 ± 6.84 | 40.88 ± 4.11 | – | 5.5 | 3.2 | 5.6 | – | – | –
CCC1=C([N+](=O)[O-])C(c2ccc([N+](=O)[O-])cc2)n2nc(SC)c(C#N)c2N1 (stereo not shown) [Compound 5n, 5-Ehtyl-3-cyano-2-methylthio-6-nitro-7-(4ʹ-nitrophenyl)-4,7-dihydropyrazolo[1,5-a]pyrimidine] | 19.8 ± 24.5 | – | – | – | – | 119.75 ± 8.49 | 151.44 ± 7.28 | 112.26 ± 8.19 | 78.70 ± 9.75 | – | – | – | – | – | –
CN[C@@H]1C[C@H]2O[C@@](C)([C@@H]1OC)n1c3ccccc3c3c4c(c5c6ccccc6n2c5c31)C(=O)NC4 [Staurosporine, reference compound] | – | – | – | – | – | – | – | – | – | – | – | – | −0.974 | 72.3 ± 6.39 | –
3-Cyano-2-methylthio-6-nitro-7-(4ʹ-nitrophenyl)-4,7-dihydropyrazolo[1,5-a]pyrimidine [Compound 5o] | – | – | – | – | paradoxically enhance CK2 activity | 22.49 ± 2.93 | 36.33 ± 3.40 | 28.09 ± 3.91 | – | 7.5 | 4.7 | 6 | – | – | –
CCC1=C([N+](=O)[O-])C(c2ccc([N+](=O)[O-])cc2)n2nc(C(F)(F)F)nc2N1 (stereo not shown) [Compound 6e] | 39.8 ± 19.5 | low potency | – | > 100 | Moderate inhibition | 82.44 ± 2.22 | 192.69 ± 10.27 | 93.72 ± 5.89 | 54.16 ± 5.32 | – | – | – | – | – | –
CCC1=C([N+](=O)[O-])C(c2cccs2)n2ncc(C#N)c2N1 (stereo not shown) [Compound 5k, 3-Cyano-5-ethyl-6-nitro-7-(thiophen-2-yl)-4,7-dihydropyrazolo[1,5-a]pyrimidine] | 66.8 ± 7.97 | micromolar CK2 inhibitors | −1.183 | 52.3 | Moderate inhibition | 110.23 ± 2.97 | 89.43 ± 10.46 | 77.32 ± 3.06 | 107.57 ± 11.10 | – | – | – | – | – | –
CC1=C([N+](=O)[O-])C(c2cccs2)n2nccc2N1 (stereo not shown) [Compound 5d, 6-Nitro-5-methyl-7-(thiophen-2ʹ-yl)-4,7-dihydropyrazolo[1,5-a]pyrimidine] | – | – | – | – | – | 28.91 ± 4.58 | 105.54 ± 16.81 | 103.53 ± 18.27 | 543.74 ± 70.79 | – | – | – | – | – | –
CCOC(=O)c1cnn2c1NC(CC)=C([N+](=O)[O-])C2c1ccc([N+](=O)[O-])cc1 (stereo not shown) [Compound 5f, 3-Etoxycarbonyl-5-ethyl-6-nitro-7-(4ʹ-nitrophenyl)-4,7-dihydropyrazolo[1,5-a]pyrimidine] | – | micromolar CK2 inhibitors | −1.369 | – | Moderate inhibition | 212.36 ± 42.85 | 121.97 ± 13.53 | 170.14 ± 11.16 | 35.86 ± 4.30 | – | – | – | – | 53.81 ± 0.42 | 52.8
CSc1nc2n(n1)C(c1ccccc1)C([N+](=O)[O-])=C(C)N2 (stereo not shown) [Compound 6b, 5-Methyl-2-methylthio-6-nitro-7-phenyl-4,7-dihydro-1,2,4-triazolo[1,5-a]pyrimidine] | – | – | – | – | – | 71.03 ± 2.07 | 110.11 ± 4.93 | 92.03 ± 3.08 | 237.40 ± 11.99 | – | – | – | – | – | –
N.N.[Cl][Pt][Cl] [cPt, Cisplatin, reference compound] | – | – | – | – | – | 3.64 ± 0.21 | 4.99 ± 0.31 | 2.36 ± 0.12 | 4.41 ± 0.24 | 1.2 | 0.9 | 1.9 | – | – | –
CSc1nn2c(c1C#N)NC(C)=C([N+](=O)[O-])C2c1ccccc1 (stereo not shown) [Compound 5m, 3-Cyano-5-methyl-2-methylthio-6-nitro-7-phenyl-4,7-dihydropyrazolo[1,5-a]pyrimidine] | – | – | – | – | paradoxically enhance CK2 activity | 13.36 ± 0.98 | 27.52 ± 2.77 | 18.54 ± 1.79 | – | 15.8 | 7.7 | 11.4 | – | – | –
CCOC(=O)c1cnn2c1NC(CC)=C([N+](=O)[O-])C2c1ccccc1 (stereo not shown) [Compound 5e, 3-Etoxycarbonyl-5-ethyl-6-nitro-7-phenyl-4,7-dihydropyrazolo[1,5-a]pyrimidine] | – | – | – | – | – | 256.72 ± 12.20 | 99.46 ± 4.43 | 126.60 ± 7.17 | 222.84 ± 6.33 | – | – | – | – | – | –
